In patent US12485169B2, “Compounds” (GREY WOLF THERAPEUTICS LIMITED, priority 2018, dated 2025):
pIC50: −log10 of the molar value.

Target: T1, Purified ERAP1 (37-941)-10His (ERAP1) (Homo sapiens, UniProt Q9NZ08)
T1 construct: Purified ERAP1 (37-941)-10His (ERAP1)
Test: ERAP1 mediated hydrolysis of an amide substrate (10-mer inhibition assay), biochemical system
Conditions: 10-mer substrate, 23° C., 1 h, excitation 279 nm / emission 355 nm; read-out: IC50 vs Decapeptide WRVYEKC(Dnp)ALK-acid (where Dnp is Dinitrophenyl maleimide) (10-mer)

T1 sequence (Q9NZ08 37-941): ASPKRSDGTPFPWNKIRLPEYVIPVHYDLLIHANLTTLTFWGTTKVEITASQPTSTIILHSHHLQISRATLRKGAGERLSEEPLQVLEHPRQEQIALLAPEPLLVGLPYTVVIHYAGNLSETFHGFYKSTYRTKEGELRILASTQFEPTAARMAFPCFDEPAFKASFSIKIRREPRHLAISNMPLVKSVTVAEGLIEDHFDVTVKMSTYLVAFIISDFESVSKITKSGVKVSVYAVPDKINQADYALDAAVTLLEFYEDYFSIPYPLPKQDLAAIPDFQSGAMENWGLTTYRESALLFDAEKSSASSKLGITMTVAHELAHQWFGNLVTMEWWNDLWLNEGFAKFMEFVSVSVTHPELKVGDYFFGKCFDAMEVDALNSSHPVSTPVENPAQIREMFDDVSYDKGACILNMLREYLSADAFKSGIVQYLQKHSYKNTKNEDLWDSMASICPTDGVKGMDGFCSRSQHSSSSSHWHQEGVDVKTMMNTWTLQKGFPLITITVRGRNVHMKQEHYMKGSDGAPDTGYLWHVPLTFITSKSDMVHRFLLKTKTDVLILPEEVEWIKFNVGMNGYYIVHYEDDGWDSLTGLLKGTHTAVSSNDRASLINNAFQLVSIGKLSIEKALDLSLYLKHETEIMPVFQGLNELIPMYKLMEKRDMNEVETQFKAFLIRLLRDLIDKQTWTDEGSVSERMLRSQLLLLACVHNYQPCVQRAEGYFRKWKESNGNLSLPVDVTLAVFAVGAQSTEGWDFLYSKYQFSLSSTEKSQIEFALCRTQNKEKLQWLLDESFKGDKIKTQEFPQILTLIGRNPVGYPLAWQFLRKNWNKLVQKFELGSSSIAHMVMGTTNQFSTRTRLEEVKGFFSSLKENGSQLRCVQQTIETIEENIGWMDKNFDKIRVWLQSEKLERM

pIC50	SMILES
> 6.30	CCc1ccc(C(=O)O)cc1S(=O)(=O)Nc1cc(-c2cn(C)nn2)ccc1N1CCCCC1 [Example 273, 4-ethyl-3-(N-(5-(1-methyl-1,2,3-triazol-4-yl)-2-(piperidin-1-yl)phenyl)sulfamoyl)benzoic acid]
> 6.30	CCc1ccc(C(=O)O)cc1S(=O)(=O)Nc1cc(-c2cnnn2C)ccc1N1CCCCC1 [Example 274, 4-ethyl-3-(N-(5-(1-methyl-1,2,3-triazol-5-yl)-2-(piperidin-1-yl)phenyl)sulfamoyl)benzoic acid]
> 6.30	CCc1ccc(C(=O)O)cc1S(=O)(=O)Nc1cc(-c2cncs2)ccc1N1CCCCC1 [Example 275, 4-ethyl-3-(N-(2-(piperidin-1-yl)-5-(thiazol-5-yl)phenyl)sulfamoyl)benzoic acid]
> 6.30	CCc1ccc(C(=O)O)cc1S(=O)(=O)Nc1cc(-c2cc[nH]n2)ccc1N1CCCCC1 [Example 276, 4-ethyl-3-(N-(2-(piperidin-1-yl)-5-(pyrazol-3-yl)phenyl)sulfamoyl)benzoic acid]
> 6.30	CCc1ccc(C(=O)O)cc1S(=O)(=O)Nc1cc(-c2cnn(C)c2)ccc1N1CCCCC1 [Example 277, 4-ethyl-3-(N-(5-(1-methylpyrazol-4-yl)-2-(piperidin-1-yl)phenyl)sulfamoyl)benzoic acid]
> 6.30	CCc1ccc(C(=O)O)cc1S(=O)(=O)Nc1cc(-c2nncs2)ccc1N1CCCCC1 [Example 278, 4-ethyl-3-(N-(2-(piperidin-1-yl)-5-(1,3,4-thiadiazol-2-yl)phenyl)sulfamoyl)benzoic acid]
> 6.30	CCc1ccc(C(=O)O)cc1S(=O)(=O)Nc1cc(-c2cnoc2C)ccc1N1CCCCC1 [Example 279, 4-ethyl-3-(N-(5-(5-methylisoxazol-4-yl)-2-(piperidin-1-yl)phenyl)sulfamoyl)benzoic acid]
> 6.30	CCc1ccc(C(=O)O)cc1S(=O)(=O)Nc1cc(-c2ccn(C)n2)ccc1N1CCCCC1 [Example 280, 4-ethyl-3-(N-(5-(1-methylpyrazol-3-yl)-2-(piperidin-1-yl)phenyl)sulfamoyl)benzoic acid]
> 6.30	CCc1ccc(C(=O)O)cc1S(=O)(=O)Nc1cc(-c2ccnn2C)ccc1N1CCCCC1 [Example 281]
> 6.30	CCc1ccc(C(=O)O)cc1S(=O)(=O)Nc1cc(-c2cnc(C)s2)ccc1N1CCCCC1 [Example 282, 4-ethyl-3-(N-(5-(2-methylthiazol-5-yl)-2-(piperidin-1-yl)phenyl)sulfamoyl)benzoic acid]
> 6.30	CCc1ccc(C(=O)O)cc1S(=O)(=O)Nc1cc(-n2cnnn2)ccc1N1CC(O)C1 [Example 283, 4-ethyl-3-(N-(2-(3-hydroxyazetidin-1-yl)-5-(tetrazol-1-yl)phenyl)sulfamoyl)benzoic acid]
> 6.30	CCc1ccc(C(=O)O)cc1S(=O)(=O)Nc1cc(-c2ccns2)ccc1N1CCCCC1 [Example 286, 4-ethyl-3-(N-(5-(isothiazol-5-yl)-2-(piperidin-1-yl)phenyl)sulfamoyl)benzoic acid]
> 6.30	CCc1ccc(C(=O)O)cc1S(=O)(=O)Nc1cc(-c2cncn2C)ccc1N1CCCCC1 [Example 287, 4-ethyl-3-(N-(5-(1-methylimidazol-5-yl)-2-(piperidin-1-yl)phenyl)sulfamoyl)benzoic acid]
> 6.30	CCc1ccc(C(=O)O)cc1S(=O)(=O)Nc1cc(-c2ncnn2C)ccc1N1CCCCC1 [Example 288, 4-ethyl-3-(N-(5-(1-methyl-1,2,4-triazol-5-yl)-2-(piperidin-1-yl)phenyl)sulfamoyl)benzoic acid]
> 6.30	CCc1ccc(C(=O)O)cc1S(=O)(=O)Nc1cc(-c2ncco2)ccc1N1CCCCC1 [Example 289, 4-ethyl-3-(N-(5-(oxazol-2-yl)-2-(piperidin-1-yl)phenyl)sulfamoyl)benzoic acid]
> 6.30	CCc1ccc(C(=O)O)cc1S(=O)(=O)Nc1cc(-c2cnccn2)ccc1N1CCCCC1 [Example 290, 4-ethyl-3-(N-(2-(piperidin-1-yl)-5-(pyrazin-2-yl)phenyl)sulfamoyl)benzoic acid]
> 6.30	CCc1ccc(C(=O)O)cc1S(=O)(=O)Nc1cc(-c2c(C)noc2C)ccc1N1CCCCC1 [Example 291, 3-(N-(5-(3,5-dimethylisoxazol-4-yl)-2-(piperidin-1-yl)phenyl)sulfamoyl)-4-ethylbenzoic acid]
> 6.30	CCc1ccc(C(=O)O)cc1S(=O)(=O)Nc1cc(-c2nnc(C)o2)ccc1N1CCCCC1 [Example 292, 4-ethyl-3-(N-(5-(5-methyl-1,3,4-oxadiazol-2-yl)-2-(piperidin-1-yl)phenyl)sulfamoyl)benzoic acid]
> 6.30	CCc1ccc(C(=O)O)cc1S(=O)(=O)Nc1cc(-c2cccnn2)ccc1N1CCCCC1 [Example 293, 4-ethyl-3-(N-(2-(piperidin-1-yl)-5-(pyridazin-3-yl)phenyl)sulfamoyl)benzoic acid]
> 6.30	CCc1ccc(C(=O)O)cc1S(=O)(=O)Nc1cc(C(F)(F)F)c(Br)cc1N1CCCCC1 [Example 294, 3-(N-(4-bromo-2-(piperidin-1-yl)-5-(trifluoromethyl)phenyl)sulfamoyl)-4-ethylbenzoic acid]

pIC50	SMILES
> 6.30	N#Cc1ccc(N2CCCCC2)c(NS(=O)(=O)c2cc(C(=O)O)ccc2C2CC2)c1 [Example 295, 3-(N-(5-cyano-2-(piperidin-1-yl)phenyl)sulfamoyl)-4-cyclopropylbenzoic acid]
> 6.30	CS(=O)(=O)c1ccc(N2CCCCC2)c(NS(=O)(=O)c2cc(C(=O)O)ccc2C2CC2)c1 [Example 296, 4-cyclopropyl-3-(N-(5-(methylsulfonyl)-2-(piperidin-1-yl)phenyl)sulfamoyl)benzoic acid]
> 6.30	CCc1ccc(C(=O)O)cc1S(=O)(=O)Nc1cc(-c2cnoc2)ccc1N1CCCCC1 [Example 297, 4-ethyl-3-(N-(5-(isoxazol-4-yl)-2-(piperidin-1-yl)phenyl)sulfamoyl)benzoic acid]
> 6.30	CCc1ccc(C(=O)O)cc1S(=O)(=O)Nc1cc(-c2c[nH]nn2)ccc1N1CCCCC1 [Example 298, 4-ethyl-3-(N-(2-(piperidin-1-yl)-5-(1,2,3-triazol-4-yl)phenyl)sulfamoyl)benzoic acid]
> 6.30	CCc1ccc(C(=O)O)cc1S(=O)(=O)Nc1cc(-c2nnco2)ccc1N1CCCCC1 [Example 299]
> 6.30	CCc1ccc(C(=O)O)cc1S(=O)(=O)Nc1cc(-c2ccno2)ccc1N1CCCCC1 [Example 300, 4-ethyl-3-(N-(5-(isoxazol-5-yl)-2-(piperidin-1-yl)phenyl)sulfamoyl)benzoic acid]
> 6.30	CCc1ccc(C(=O)O)cc1S(=O)(=O)Nc1cc(-c2cn[nH]c2)ccc1N1CCCCC1 [Example 301, 4-ethyl-3-(N-(2-(piperidin-1-yl)-5-(pyrazol-4-yl)phenyl)sulfamoyl)benzoic acid]
> 6.30	CCc1ccc(C(=O)O)cc1S(=O)(=O)Nc1cc(-c2ccnnc2)ccc1N1CCCCC1 [Example 302, 4-ethyl-3-(N-(2-(piperidin-1-yl)-5-(pyridazin-4-yl)phenyl)sulfamoyl)benzoic acid]
> 6.30	CCc1ccc(C(=O)O)cc1S(=O)(=O)Nc1cc(-c2cnoc2C)c(C)cc1N1CCCCC1 [Example 303, 4-ethyl-3-(N-(4-methyl-5-(5-methylisoxazol-4-yl)-2-(piperidin-1-yl)phenyl)sulfamoyl)benzoic acid]
> 6.30	CCc1ccc(C(=O)O)cc1S(=O)(=O)Nc1cc(-c2cnoc2C)c(F)cc1N1CCCCC1 [Example 304, 4-ethyl-3-(N-(4-fluoro-5-(5-methylisoxazol-4-yl)-2-(piperidin-1-yl)phenyl)sulfamoyl)benzoic acid]
> 6.30	CCc1ccc(C(=O)O)cc1S(=O)(=O)Nc1c(N2CCCCC2)ccc(-c2cnoc2C)c1F [Example 305, 4-ethyl-3-(N-(2-fluoro-3-(5-methylisoxazol-4-yl)-6-(piperidin-1-yl)phenyl)sulfamoyl)benzoic acid]
> 6.30	CCc1ccc(C(=O)O)cc1S(=O)(=O)Nc1cc(-c2cnoc2C)c(Cl)cc1N1CCCCC1 [Example 306, 4-ethyl-3-(N-(4-Chloro-5-(5-methylisoxazol-4-yl)-2-(piperidin-1-yl)phenyl)sulfamoyl)benzoic acid]
> 6.30	CCc1ccc(C(=O)O)cc1S(=O)(=O)Nc1cc(S(C)(=O)=O)ccc1N1CCC(F)(F)CC1 [Example 308, 3-(N-(2-(4,4-difluoropiperidin-1-yl)-5-(methylsulfonyl)phenyl)sulfamoyl)-4-ethylbenzoic acid]
> 6.30	CS(=O)(=O)c1ccc(N2CCC(F)(F)CC2)c(NS(=O)(=O)c2cc(C(=O)O)ccc2C2CC2)c1 [Example 309, 4-cyclopropyl-3-(N-(2-(4,4-difluoropiperidin-1-yl)-5-(methylsulfonyl)phenyl)sulfamoyl)benzoic acid]
> 6.30	N#Cc1ccc(N2CCC(F)(F)CC2)c(NS(=O)(=O)c2cc(C(=O)O)ccc2C2CC2)c1 [Example 310, 3-(N-(5-cyano-2-(4,4-difluoropiperidin-1-yl)phenyl)sulfamoyl)-4-cyclopropylbenzoic acid]
> 6.30	CCc1ccc(C(=O)O)cc1S(=O)(=O)Nc1cc(C#N)ccc1N1CCC[C@@H](F)C1 [Example 311, I-3-(N-(5-cyano-2-(3-fluoropiperidin-1-yl)phenyl)sulfamoyl)-4-ethylbenzoic]
> 6.30	N#Cc1ccc(N2CCC[C@@H](F)C2)c(NS(=O)(=O)c2cc(C(=O)O)ccc2C2CC2)c1 [Example 312, I-3-(N-(5-cyano-2-(3-fluoropiperidin-1-yl)phenyl)sulfamoyl)-4-cyclopropylbenzoic acid]
> 6.30	CCc1ccc(C(=O)O)cc1S(=O)(=O)Nc1cc(S(C)(=O)=O)ccc1N1CCCC(F)(F)C1 [Example 313, 3-(N-(2-(3,3-difluoropiperidin-1-yl)-5-(methylsulfonyl)phenyl)sulfamoyl)-4-ethylbenzoic acid]
> 6.30	O=C(O)c1ccc(C2CC2)c(S(=O)(=O)Nc2cc(C(F)(F)F)ccc2N2CCC[C@@H](O)C2)c1 [Example 314, I-4-cyclopropyl-3-(N-(2-(3-hydroxypiperidin-1-yl)-5-(trifluoromethyl)phenyl)sulfamoyl)benzoic acid]
